Data set [1] can be described thus: Pharmacokinetic parameters in Beagle dog plasma. In kind it is in vivo. The protocol:
4 healthy male Beagle dogs were selected and randomly divided into two groups, with 2 dogs in each group. One group was given the test compound at 1 mg/kg by intravenous injection, and the other group was given the test compound at 5 mg/kg by intragastric administration. Plasma samples were collected at 0.033, 0.083, 0.25, 0.5, 1.0, 2.0, 4.0, 6.0, 8.0, and 24 h after administration for the intravenous injection group and intragastric administration group, respectively. Quantitative analysis of all biological samples was carried out by LC-MS/MS method, and the WinNonlin™ Version 6.3 (Pharsight, Mountain View, CA) pharmacokinetic software was used to calculate the relevant pharmacokinetic parameters by the non-compartmental model linear logarithmic trapezoidal method. AUC0-last represents area under the plasma concentration-time curve from time zero to the last detectable concentration time point; p.o. represents oral; i.v. represents intravenous injection; T1/2 represents half-life; CL represents clearance rate; Vd represents apparent volume of distribution; Cmax represents peak concentration; Tmax represents time to peak; F % represents oral bioavailability.

A short description of data set [2]: Drug concentration in cerebrospinal fluid of Beagle dogs. In kind it is in vivo. The conditions noted are these: male, po, Beagle dog, p.o. 5 mg/kg. The procedure: 2 healthy male Beagle dogs were selected, and after intragastric administration of the test compound at 5 mg/kg, cerebrospinal fluid samples were taken at 0.5 h, 2 h and 6 h after the administration, respectively. Quantitative analysis of all biological samples was carried out by LC-MS/MS method, and the WinNonlin™ Version 6.3 (Pharsight, Mountain View, CA) pharmacokinetic software was used to calculate the relevant pharmacokinetic parameters by the non-compartmental model linear logarithmic trapezoidal method. AUC0-last represents area under the plasma concentration-time curve from time zero to the last detectable concentration time point; p.o. represents oral; i.v. represents intravenous injection; T1/2 represents half-life; CL represents clearance rate; Vd represents apparent volume of distribution; Cmax represents peak concentration; Tmax represents time to peak; F % represents oral bioavailability.

Another data set addresses T1, OX1R (Homo sapiens, UniProt O43613).
T1 construct: expressed in transfected cells
T1 sequence (O43613 1-425): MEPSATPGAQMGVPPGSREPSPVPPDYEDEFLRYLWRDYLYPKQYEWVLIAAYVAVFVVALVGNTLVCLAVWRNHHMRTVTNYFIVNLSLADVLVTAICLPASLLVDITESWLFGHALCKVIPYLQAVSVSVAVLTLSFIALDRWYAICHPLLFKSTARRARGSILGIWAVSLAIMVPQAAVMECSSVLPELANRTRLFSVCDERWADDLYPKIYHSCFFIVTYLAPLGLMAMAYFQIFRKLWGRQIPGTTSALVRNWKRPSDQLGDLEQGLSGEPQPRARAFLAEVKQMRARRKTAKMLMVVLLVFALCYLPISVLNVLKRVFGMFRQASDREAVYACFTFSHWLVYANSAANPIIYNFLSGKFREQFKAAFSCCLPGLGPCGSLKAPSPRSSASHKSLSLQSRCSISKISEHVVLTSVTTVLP
As to the kind of experiment: FLIPR intracellular calcium antagonism test, HEK293-OX1R cells. The conditions noted are these: Orexin A at EC70, read-out: hOXIR IC50. In kind it is cell-based. The protocol:
The change of intracellular calcium signal was detected by FLIPR, and the antagonism of the compounds on OX1R and OX2R receptors was evaluated by using IC50 value of the compounds as an index.
• Cell lines: Transfected HEK293-OX1R and HEK293-OX2R stable cell lines • HEK293-OX1R cell culture medium (DMEM, Invitrogen #11960-044, 10% serum Gibco #10099141, L-Glutamine 1×, Gibco #25030, sodium pyruvate 1×, Gibco #11360, Geneticin 300 μg/mL, Gibco #10131) • HEK293-OX2R cell culture medium (DMEM, Invitrogen #11960-044, 10% serum Gibco #10099141, L-Glutamine 1×, Gibco #25030, sodium pyruvate 1×, Gibco #11360, Geneticin 300 μg/mL, Gibco #10131, Blasticin 2 μg/mL, Invitrogen #R21001)
Experimental Steps and Methods: • a) Cell seeding (HEK293-OX1R and HEK293-OX2R cells) • 1) preheating the culture medium, trypsin and DPBS under water bath at 37° C.; pipetting and removing the medium of cell culture and washing same with 10 mL of DPBS; • 2) adding the preheated trypsin to a culture flask, rotating the culture flask so that the trypsin evenly covered the culture flask, and putting the culture flask in a 37° C., 5% CO2 incubator for digestion for 1-2 min; • 3) suspending the cells with 10-15 mL of medium for each T150 and centrifuging at 800 rpm for 5 min; resuspending the cells with 10 mL of medium, pipetting 1 mL of the cell suspension and counting with Vi-cell; • 4) diluting OX1R cells with medium to 5×10^5 cells/mL, and diluting OX2R cells with medium to 4×10^5 cells/mL, and adding the diluted cells to 384 plate (Greiner.781946) with a multi-channel pipette (50 μL/well, 25000 cells/well for OX1R cells, 20000 cells/well for OX2R cells); placing the cell plate in a 37° C., 5% CO2 incubator overnight. • b) Compound loading: • 1) diluting the compound to 20 mM with DMSO, 3-fold dilution, 8 gradients, duplicate wells, and adding same to a compound plate with an Echo liquid handler; then adding 20 μL of buffer to maintain the final concentration of DMSO of 0.1%. • c) FLIPR experiment: • 1) washing off the cell culture medium in the 384 plate with a vacuum pump, adding […] Direct fluorescent dye, incubating in 37° C., 5% CO2 incubator for 1 h, and balancing at room temperature for another 10 min. • 2) EC50 test: manually diluting Orexin A on ice, 3-fold dilution, 8 gradients, duplicate wells; preparing a DMSO plate and keep the DMSO concentration to be 0.5%; putting the cell plate, OrexinA plate, and DMSO plate in FLIPR respectively, and reading the fluorescence value. • 3) calculating the EC70 value based on the EC50 value of Orexin A; preparing a 5×EC70 solution, adding same to 384 compound plate with a multi-channel pipette, and storing on ice; • 4) putting the compound plate, 5×EC70 plate, cell plate, and FLIPR tip in sequence in FLIPR, running the program, and reading the fluorescence value. • d) Data analyzing: using Prism5.0 to analyze the data, and calculating the IC50 value of the compound.
(Calcium flux is commonly read through the fluorescence of an indicator in the cells.)

In general, AUC(0-t) refers to exposure summed from dosing to a finite time, without extrapolation to infinity. Lower therefore signals low exposure. For orientation: clearance means the rate of elimination divided by the concentration. A high value points to a high capacity for elimination. Usually half-life stands for the time needed for the level to fall by half in the phase considered. A lower half-life goes with rapid decline. The Cmax is the maximum level reached in the sampled fluid or tissue. One may read the Tmax as the time at which the peak concentration occurs. By IC50 is commonly meant the concentration needed to halve the response being measured. In the case of `COc1ccc(-n2nccn2)c(C(=O)N2C(c3nc4ccc(OC)cc4[nH]3)CC3CC32)c1` (stereo not drawn) [Compound 8], in data set [1] (male, plasma, iv, i.v. 1 mg/kg), the AUC(0-t) turned out to be 15.3 µM·h, the clearance worked out at 2.57 mL/min/kg and the half-life was 2.79 h. Besides, the Vd in data set [1] (male, plasma, iv, i.v. 1 mg/kg, read-out: Vdss) amounted to 0.41 L/kg. Also, in data set [1] (male, plasma, po, p.o. 5 mg/kg), the AUC(0-t) was determined as 26.2 µM·h, the concentration peaked (Cmax) at 6180 nM and the Tmax turned out to be 1 h. In data set [1] (p.o. 5 mg/kg vs i.v. 1 mg/kg), this molecule returned an F of 34%. For the same molecule, the concentration at 0.5 h in data set [2] (0.5 h) turned out to be 1160 nM. This molecule gave a concentration at 2 h in data set [2] (2 h) of 773 nM. In data set [2] (6 h), this molecule displayed a concentration at 6 h of 110 nM. For the same molecule, on OX1R, the IC50 stood at 1790 nM.
